Values after ≈ are worked out from the molar mass of the structure shown.
Tests used:
[1] = test system: Escherichia Coli CNCM 54125; experiment: Bactericidal activity (MBC), strain 1; format: cell-based; conditions: 20 min, strain 1, 20 minutes of contact, read-out: Minimum bactericidal concentration (MBC)
Description: (§1) The bactericidal activity of the products according to the invention has been analyzed on various strains by the method described hereafter:
(§2) A bacterial inoculum is placed in contact with different dilutions of the product to be tested, and this for a limited period of time. At the end of contact, an aliquot part of the mixture bacterial suspension/product is deposited on the surface of an agar culture medium containing an agent neutralizing the antibacterial activity of the product. The bactericidal concentration retained is the smallest concentration of the product from which bacteria stop growing. Said concentration is expressed in μg/ml.
(§3) The bacterial strains selected for the analysis are:
1--Escherichia Coli CNCM 54125;
(§4) The second strain is supported on a Worgel Fergusson medium, the other strains being supported on Tryptic Soy Agar-Difco (TSA) commercialized by Difco.
(§5) After a 24-hour culture period at 37° C., the microbial growth is collected by means of glass beads and of 10 ml of diluent containing 1 g of tryptone and 8.5 g of sodium chloride in 1000 ml of distilled water. The formed suspension is stirred and the percentage of light transmission at 620 nm is measured with a spectrophotometer:
(§6) The bacterial inoculum corresponds to a 1/20th dilution of this bacterial suspension.
(§7) Plates equipped with cupules receive different dilutions of the product to be analyzed. These dilutions are placed in contact with the different bacterial suspensions by means of a multiple-center inoculator. After 20 minutes of contact, aliquot parts are transferred by means of said inoculator on the surface of an agar medium (TSA) in Petri dishes, containing an activity-neutralizing agent, namely 20 g of lubrol W, 25 g of Tween 80 and 2.5 g of sodium thiosulfate in 1000 ml of TSA (Difco). The efficiency of the neutralizing agent is controlled for each product to be analyzed by depositing on the surface of the culture medium an aliquot part of the dilution of the product to be analyzed. After drying, the corresponding inoculum is deposited in the same place. An inoculum control is performed on an agar medium with or without neutralizing agent. Readings are taken after 48 hours of incubation at 37° C.

[2] = test system: guinea-pig skin; experiment: Skin sensitization test in the guinea-pig; format: in vivo; conditions: one week treatment after two weeks' rest
Experimental: The tolerance of the products according to the invention was tested in the guinea-pig. The animals are shorn on both sides of the middle line of the back, the shearing being kept up every other day. Batches of 6 animals receive, on the shorn part, 0.2 ml of an aqueous or alcoholic solution of the product according to the invention. When these products are in alcoholic solution, one control batch of animals receives the alcohol on one side. The skin sensitization test is performed on the same animals after two weeks' rest. The treatment lasts one week, it is identical to the preceding one. The evaluation is based on the same criteria and on the same scale as used to determine the local tolerance.

[3] = test system: Encapsulated klebsiella pneumoniae R030; experiment: Bactericidal activity (MBC), strain 2; format: cell-based; conditions: 20 min, strain 2, 20 minutes of contact, read-out: Minimum bactericidal concentration (MBC)
Description: as §1, §2, §3
2--Encapsulated klebsiella pneumoniae R030;
as §4, §5, §6, §7

[4] = test system: Streptococcus faecalis CNCM 5855; experiment: Bactericidal activity (MBC), strain 4; format: cell-based; conditions: Enterococcus faecalis, CNCM5855, 20 min; strain 4, 20 minutes of contact; read-out: Minimum bactericidal concentration (MBC)
Description: as §1, §2, §3
4--Streptococcus faecalis CNCM 5855;
as §4, §5, §6, §7

[5] = test system: guinea-pig; experiment: Phototoxic or photoallergic effect on the guinea-pig; format: in vivo
Description: The products according to the invention have also been tested for a phototoxic or photoallergic effect on the guina-pig. The technique used is that of J. Unkovic, G. Mazue and J. Girard, in "Sciences et Techniques de l'Animal de Laboratoire", 1983, 8 (3), 149-160. This is an adaptation of the techniques described by L. C. Harber et al., Arch. Dermatol., 1967, 96, 646-656 and L. J. Vinson et al., Arch. Dermatol., 1966, 17, 123-130.

[6] = test system: guinea-pig skin; experiment: Preliminary skin tolerance in the guinea-pig; format: in vivo; conditions: 0.2 ml on shorn skin once a day, six days out of seven, three weeks
Experimental: The tolerance of the products according to the invention was tested in the guinea-pig. The animals are shorn on both sides of the middle line of the back, the shearing being kept up every other day. Batches of 6 animals receive, on the shorn part, 0.2 ml of an aqueous or alcoholic solution of the product according to the invention. When these products are in alcoholic solution, one control batch of animals receives the alcohol on one side.
To study the preliminary skin tolerance, the treatment is applied once a day, six days out of seven, for three weeks. The observations made of the skin are concerned with the presence of erythema, skin eruptions or hyperkeratosis, the intensity of which is graduated according to a preset scale.

[7] = test system: Staphylococcus aureus CNCM 53154; experiment: Bactericidal activity (MBC), strain 5; format: cell-based; conditions: CNCM53154, 20 min, strain 5, 20 minutes of contact, read-out: Minimum bactericidal concentration (MBC)
Description: as §1, §2, §3
5--Staphylococcus aureus CNCM 53154.
as §4, §5, §6, §7

[8] = test system: Pseudomonas aeruginosa CNCM A22; experiment: Bactericidal activity (MBC), strain 3; format: cell-based; conditions: CNCMA22, 20 min, strain 3, 20 minutes of contact, read-out: Minimum bactericidal concentration (MBC)
Description: as §1, §2, §3
3--Pseudomonas aeruginosa CNCM A22;
as §4, §5, §6, §7

[9] = Acute toxicity by oral route in mice; conditions: mouse, in vivo, per os, male CD1 mice, 14 days observation
Experimental: Acute toxicity was tested by oral route in mice. This test was carried out with male mice of CD1 strain, obtained from the Charles Reever breeding farm. Each batch was composed of 5 animals of body weight varying between 24 and 30 g kept in the same cage. The animals were kept fasting for 6 hours before the treatment. For every test, the product, placed in suspension in a 10% solution of gum arabic, was administered by forcible feeding with an oesophageal probe. Food was then served to the animals 4 hours after the forcible feeding and the animals were kept under observation for a period of 14 days after the administration. During that period, the death rate is recorded for each batch of animals used in the experiment and, wherever possible, the LD50 is determined by the method of J. T. Litchfield and F. Wilcoxon, J. Pharmacol. 1949, 95, 99-113.
The results are given in mg of substance tested per kg of body weight. They are compiled in Table III below.

[10] = test system: Candida tropicalis 3834; experiment: Antifungal activity (MFC), strain 2; format: cell-based; conditions: 20 min; yeast strain 2; read-out: Minimum fongicidal concentration (MFC)
Description: as §2, §7
(§8) The antifungal activity of the products according to the invention was also determined with the aforedescribed method.
(§9) The fungal strains selected for the analysis are:
2--Candida tropicalis 3834;
(§10) These strains are supported on a Sabouraud Dextrose agar medium commercialized by Difco; the technique used is the same as that used in the analysis of the antibacterial activity. After 48 hours of culture at 37° C., the microbial growth is collected with glass beads and 5 ml of diluent containing 1 g of tryptone and 8.5 g of sodium chloride in 1000 ml of distilled water; 5 ml of the diluent are then added. […] A 1/100th dilution of this suspension, observed between slides under a microscope 40-lens, should show 10 cells per frame, this corresponding to 1,000,000 yeasts per ml.

[11] = test system: Candida albicans CNCM 1180; experiment: Antifungal activity (MFC), strain 1; format: cell-based; conditions: 20 min; yeast strain 1; read-out: Minimum fongicidal concentration (MFC)
Description: as §2, §7, §8, §9
1--Candida albicans CNCM 1180;
as §10

[12] = test system: Torulopsis glabrata 072023; experiment: Antifungal activity (MFC), strain 4; format: cell-based; conditions: 20 min; yeast strain 4; read-out: Minimum fongicidal concentration (MFC)
Description: as §2, §7, §8, §9, §10

[13] = test system: Candida parakruzei 3918; experiment: Antifungal activity (MFC), strain 3; format: cell-based; conditions: 20 min; yeast strain 3; read-out: Minimum fongicidal concentration (MFC)
Description: as §2, §7, §8, §9
3--Candida parakruzei 3918;
as §10

Structure (SMILES) | MBC [1] | products found to have a sensibilizing effect [2] | MBC [3] | MBC [4] | products found to have a phototoxic or photoallergic effect [5] | products found to have a bad tolerance [6] | MBC [7] | MBC [8] | LD50 at 336 h [9] | MFC [10] | MFC [11] | MFC [12] | MFC [13]
CN(C)CCC(CO)c1cccc2ccccc12 (stereo not shown) [SR 42 643 A] | 5000 µg/mL (≈ 20500 µM) | None | 5000 µg/mL (≈ 20500 µM) | 2000 µg/mL (≈ 8220 µM) | None | None | 1000 µg/mL (≈ 4110 µM) | 1000 µg/mL (≈ 4110 µM) | 400 mg/kg |  |  |  | 
CCN(CC)CCC(CO)c1cccc2ccccc12.Cl (stereo not shown) [SR 42 989 A, 4-(N,N-diethylamino)-2-(1-naphthyl)-butanol hydrochloride] | 1500 µg/mL |  | 1500 µg/mL | 2000 µg/mL |  |  | 1500 µg/mL | 1500 µg/mL | 300 to 400 mg/kg |  |  |  | 
CN(C)CCCC(CO)c1cccc2ccccc12 (stereo not shown) [SR 42 994 A] | 1000 µg/mL (≈ 3890 µM) |  | 800 µg/mL (≈ 3110 µM) | 1000 µg/mL (≈ 3890 µM) |  |  | 1000 µg/mL (≈ 3890 µM) | 1000 µg/mL (≈ 3890 µM) | 750 to 1000 mg/kg | 500 µg/mL (≈ 1940 µM) | 500 µg/mL (≈ 1940 µM) | 5000 µg/mL (≈ 19400 µM) | 500 µg/mL (≈ 1940 µM)
OCC(CCN1CCCC1)c1cccc2ccccc12 (stereo not shown) [SR 43 063 A] | 2000 µg/mL (≈ 7420 µM) |  | 1000 µg/mL (≈ 3710 µM) | 2000 µg/mL (≈ 7420 µM) |  |  | 1000 µg/mL (≈ 3710 µM) | 1000 µg/mL (≈ 3710 µM) | 300 to 400 mg/kg |  |  |  | 
OCC(CCN1CCCCC1)c1cccc2ccccc12 (stereo not shown) [SR 43 077 A] | 600 µg/mL (≈ 2120 µM) | None | 600 µg/mL (≈ 2120 µM) | 600 µg/mL (≈ 2120 µM) | None | None | 600 µg/mL (≈ 2120 µM) | 800 µg/mL (≈ 2820 µM) | 300 to 400 mg/kg | 1000 µg/mL (≈ 3530 µM) | 1000 µg/mL (≈ 3530 µM) | 5000 µg/mL (≈ 17600 µM) | 1000 µg/mL (≈ 3530 µM)
CC(C)N(CCC(CO)c1cccc2ccccc12)C(C)C (stereo not shown) [SR 43 121 A] | 1500 µg/mL (≈ 5010 µM) |  | 1500 µg/mL (≈ 5010 µM) | 800 µg/mL (≈ 2670 µM) |  |  | 800 µg/mL (≈ 2670 µM) | 1500 µg/mL (≈ 5010 µM) | 300 to 400 mg/kg |  |  |  | 
OCC(CCN1CCCCCC1)c1cccc2ccccc12 (stereo not shown) [SR 43 155 A] | 500 µg/mL (≈ 1680 µM) |  | 500 µg/mL (≈ 1680 µM) | 500 µg/mL (≈ 1680 µM) |  |  | 500 µg/mL (≈ 1680 µM) | 200 µg/mL (≈ 672 µM) | < 500 mg/kg | 500 µg/mL (≈ 1680 µM) | 500 µg/mL (≈ 1680 µM) | 2000 µg/mL (≈ 6720 µM) | 500 µg/mL (≈ 1680 µM)
Cl.OCC(CCCCCCN1CCCCC1)c1cccc2ccccc12 (stereo not shown) [SR 43 157 A, 8-piperidino-2-(1-naphthyl)-octanol hydrochloride] | 200 µg/mL | None | 200 µg/mL | 200 µg/mL | None | None | 200 µg/mL | 100 µg/mL |  | 300 µg/mL | 300 µg/mL | 1000 µg/mL | 300 µg/mL
OCC(CCN1CCCCCC1)c1ccc2ccccc2c1 (stereo not shown) [SR 43 270 A] | 1000 µg/mL (≈ 3360 µM) | None | 1000 µg/mL (≈ 3360 µM) | 2000 µg/mL (≈ 6720 µM) | None | None | 1000 µg/mL (≈ 3360 µM) | 1000 µg/mL (≈ 3360 µM) |  | 1000 µg/mL (≈ 3360 µM) | 500 µg/mL (≈ 1680 µM) | 5000 µg/mL (≈ 16800 µM) | 1000 µg/mL (≈ 3360 µM)
CN(C)CCCCCCC(CO)c1cccc2ccccc12 (stereo not shown) [SR 43 727 A] | 20 µg/mL (≈ 66.8 µM) | None | 50 µg/mL (≈ 167 µM) | 20 µg/mL (≈ 66.8 µM) | None | None | 200 µg/mL (≈ 668 µM) | 50 µg/mL (≈ 167 µM) | 580 mg/kg |  |  |  | 
OCC(CCN1CCC(Cc2ccccc2)CC1)c1ccc(Cl)cc1Cl (stereo not shown) [SR 44 027 A] | 50 µg/mL (≈ 127 µM) |  | 50 µg/mL (≈ 127 µM) | 100 µg/mL (≈ 255 µM) |  |  | 200 µg/mL (≈ 510 µM) | 100 µg/mL (≈ 255 µM) | 1000 to 1200 mg/kg | 250 µg/mL (≈ 637 µM) | 250 µg/mL (≈ 637 µM) | 250 µg/mL (≈ 637 µM) | 500 µg/mL (≈ 1270 µM)

From patent US4820717A, “Antimicrobial aromatic derivatives substituted by an (omega amino) alkanol group and compositions containing them” (priority 1985, dated 1989)
